Test [1] has as its system E15 rat cortical neurones. In words: Cell death by TUNEL in E15 rat cortical neurones (FIG. 3). The test is classed as cell-based. On the procedure: (§1) Cortical and corticostriatal neurons are prepared, as described previously (Lafont et al., Development, 1992, 114, 17–29, ), from E14, mouse embryos or from E15, rat embryos.
(§2) Briefly, the dissociated cells are plated out onto polyornithine-coated plastic plates (ELISA-type plates) at a density of 5,000, cells per well, and incubated in a suitable medium supplemented with hormones, proteins and salts.
(§3) All the peptides are added to the cells two hours after the latter have been plated out. The internalization is verified by confocal microscopy after immunolabeling (Pmyc) or detection of biotin (Jcasp and its variants).
(§4) The internalization and the intracellular stability of Jcasp, Pmyc and J(Y→D)Casp are identical. The irreversible caspase inhibitors zVAD-fmk (100 μM) and zDEVD-fmk (200 μM) (Calbiochem, France) are added 1 hour before addition of the peptide.
(§5) The apoptotic cells are detected by TUNEL labeling (fluorescein or alkaline phosphatase kits) as described by the supplier (Roche Diagnostics, France).
(§6) For each condition, 600 to 800 cells are counted three times.
(§7) The statistical analysis is carried out with ANOVA and the Scheffé test.
Peptide Jcasp induces neuronal apoptosis. Two hours after plating out onto plates, peptide Jcasp is added to the E15 rat cortical neurones and cell death is evaluated by the TUNEL effect, 24 hours later.

The subject of test [2] is actin cleavage by caspase 3 in neurons. As to the kind of experiment: Quantification of actin cleavage by caspase 3 using anti-fractin antibody (FIGS. 4 and 5). The test is classed as cell-based, mouse or rat. Particulars: for actin cleavage (percentage of fractin-positive neurons): 24 h, triplicate. The procedure: (§8) For the immunodetection of the fractin or of the p20 subunit of caspase 3 (Pharmingen), the cells are fixed with 4% paraformaldehyde (30 minutes, room temperature), washed three times with PBS and saturated for 1 hour at 37° C. with 10% fetal calf serum (FCS) in PBS containing 0.2% of Triton X 100.
(§9) Purified primary antibodies directed against fractin or p20 are diluted (in PBS-FCS) 2000-fold and 500-fold, respectively, incubated overnight at 4° C. washed three times and incubated with biotinylated anti-rabbit antibodies.
(§10) The detection is carried out using the alkaline phosphatase amplification kit (Vector, France).
as §6, §7
FIGS. 4 and 5 illustrate the quantification of the actin cleavage by caspase 3 using the anti-fractin antibody, by immunocytochemistry after fixing the cells with paraformaldehyde (F. Yang et al., Am. J. Pathol., 1998, 152, 2, 379–389). The anti-fractin antibody specifically recognizes actin cleaved by caspase 3. The percentage of fractin-positive neurons was determined after 24 h of internalization of the peptides, by counting approximately 1000 cells per well in triplicate.

Test [3] relates to p20 subunit of caspase 3 in mouse cortical embryonic neurons. As to the kind of experiment: Immunoreactivity for the p20 subunit of caspase 3 (FIGS. 6 and 7). The format is cell-based. The settings on record: inhibitor with peptide Jcasp. On the procedure: as §8, §9, §10, §6, §7
In order to verify that caspase 3 is effectively involved in the apoptosis caused by peptide Jcasp, use is made of the fact that this enzyme (caspase 3) is synthesized in the form of a propetide (37 kDa) which, after stimulation, generates an active subunit of 17–22 kDa (p20).
Immunoreactivity for p20 is examined in mouse cortical embryonic neurons cultured for 24 hours in the presence of several peptides. FIG. 6 illustrates the immunoreactivity for the p20 protein and FIG. 7 quantifies the induction of the p20.

Test [4] relates to neurons (primary culture). In words: Quantification of DNA cleavage by TUNEL 24 h after internalization of the peptides (FIG. 2). The format is cell-based, mouse or rat. Particulars: for DNA cleavage (percentage of TUNEL-positive cells): triplicate, p<0.0001. The procedure: as §1, §2, §3, §4, §5, §6, §7
Peptide G was internalized at 2 concentrations (1X and 2X) and peptide Gcasp (or Jcasp) was internalized at the 1X concentration, in the presence or absence of the caspase inhibitor zVAD.
Each condition was tested in triplicate. The percentage of positive cells was evaluated after 24 h by counting approximately 1000 cells per well.

Test [5] has as its system cortical and corticostriatal neurons. As to the kind of experiment: Internalization of peptides into primary cultures of neurons: toxicity, neurite growth, neuronal death. The format is cell-based, mouse or rat. The procedure: as §1, §2
The internalization conditions are the same as those described in International Application WO 97/12912.
as §3

Where a SMILES comes first, the peptide text is derived from it. The star is where a group is joined. Cbz = O=C(OCc1ccccc1)*; CH2F = FC*

With `COC(=O)CC[C@H](NC(=O)[C@H](CC(=O)OC)NC(=O)OCc1ccccc1)C(=O)N[C@H](C(=O)N[C@@H](CC(=O)OC)C(=O)CF)C(C)C` [zDEVD-fmk], the “effect on basal cell death (TUNEL)” value in test [1] (inhibitor at 200 μM, added 1 hour before peptide) is given as “weak effect”. The “inhibition of DNA fragmentation induced by peptide Jcasp” value in test [1] (inhibitor at 200 μM, Jcasp at 1.2 μM and 2.4 μM) was “inhibits the DNA fragmentation”. Besides, in test [2] (inhibitor with peptide Jcasp), the “effect on actin cleavage induced by peptide Jcasp (FIG. 5)” value is recorded as “inhibits the actin cleavage”. Also, the “effect on activation of p20 by peptide Jcasp” value in test [3] is listed as “significantly decreases the activation of p20”.
Take `COC(=O)C[C@H](NC(=O)[C@H](C)NC(=O)[C@@H](NC(=O)OCc1ccccc1)C(C)C)C(=O)CF` [zVAD-fmk] (Cbz-Val-Ala-Asp(OMe)-CH2F): in test [4] (with peptide G or Jcasp), the “effect of caspase inhibitor on peptide-induced increase in DNA cleavage (TUNEL)” value is given as “inhibits this increase in cleavage”. Moreover, the “effect on endogenous cleavage of actin by caspases of neurones” value in test [2] (inhibitor alone) is given as “inhibits all endogenous cleavage”. Also, the “effect on the peptide-induced increase in actin cleavage” value in test [2] (with G1X, G2X and Gcasp1X, p<0.0001, inhibition not complete) was “significantly inhibits the increase”.
“Pmyc: SEQ ID NO: 5 + peptide corresponding to the MYC sequence [EQKLISEED]; no relation to APP (KQIKIWFQNRRMKWKKEQKLISEED; listed as Homo sapiens)”: the “DNA fragmentation / number of TUNEL-positive cells” value in test [1] (24 hours, concentration not given) is listed as “no effect”.
With “peptide E: SEQ ID NO: 5 + domain E (VDAAVTPEE, SEQ ID NO: 6), APP positions 663–671 (KQIKIWFQNRRMKWKKVDAAVTPEE; listed as Homo sapiens)”, the “effect on neurite growth after internalization” value (“effect on neurite growth” below) in test [5] (internalization into neurons) is “no effect”.
As to “peptide G: KQYTSIHHG, APP positions 651–659 (SEQ ID NO: 2, Y0 null), tested with Y1 = penetratin SEQ ID NO: 5 (KQIKIWFQNRRMKWKKKQYTSIHHG; listed as Homo sapiens)”, the “effect on neurite growth” value in test [5] (concentrations lower than one μM) is “reproduces the effects of the intact C-terminal domain”. Further, the “pro-apoptotic nature after internalization” value in test [5] (internalized into neurons) is reported as “pro-apoptotic”. Moreover, the “DNA cleavage (percentage of TUNEL-positive cells)” value in test [4] (concentration 1X) and in test [4] (concentration 2X) was “significant increase” throughout. Also, the “actin cleavage (percentage of fractin-positive neurons)” value is “significant increase” in test [2] (1X) and “significant increase” in test [2] (2X, p<0.0001).
Turning to “peptide H: SEQ ID NO: 5 + domain H (NGYENPTYK, SEQ ID NO: 7), APP positions 680–688 (KQIKIWFQNRRMKWKKNGYENPTYK; listed as Homo sapiens)”, in test [5] (internalization into neurons), the “effect on neurite growth” value was “no effect”.

The record behind these values is US7115380B2, “Applications of peptides derived from the cytoplasmic domain of amyloid precursor protein (APP)” (Centre National de la Recherche Scientifique, priority 1999, dated 2006).
